Assay results: patent publication US6063814A, “Phorbol esters as anti-neoplastic and white blood cell elevating agents” (priority 1997, dated 2000)
Where “and” joins values, the source holds several entries; their conditions need not be identical. Identical values can stand only once.

Experiments:
HL-60 cells = assay: TPA + low doses of Ara-C, HL-60 differentiation; type: cell-based, human
Excerpt: (2) TPA+Low Doses of Ara-C:

[1] = test system: leukemia (bone marrow myeloblast and promyelocyte); assay: Clinical treatment of leukemia patients with TPA; type: in vivo, humans; conditions: for bone marrow suppression, infection or bleeding: during and after treatment; for Spleen below the rib cage after treatment: 3 cm before
Procedure: The results obtained upon treatment of patients with TPA as presented in tabular form and in subsequent examples.
In the subjects identified as (1) through (5) below, chronic myelocytic leukemia had progressed to acute myelocytic leukemia before treatment with TPA.
Subject No. (1), patient No. 28879. Blood profile before TPA treatment: Hb: 28 g/L; WBC: 1.0×10^9 /L, platelet: 135×10^9 /L. Bone marrow profile before TPA treatment: myeloblast+promyelocyte: 30%. TPA treatment: 1 mg/week (0.25 mg administered four times) for two weeks. Blood profile after treatment: Hb: 86 g/L; WBC: 2.8×10^9 /L, platelet: 283×10^9 /L. Bone marrow profile after TPA treatment: myeloblast+promyelocyte: 2.5%.
Subject No. (2), patient No. 29926. Diagnosis: chronic myelocytic leukemia became acute myelocytic leukemia before treatment. Blood profile before TPA treatment: Hb: 94 g/L; WBC: 9.8×10^9 /L, platelet: 63×10^9 /L. Spleen: 3 cm below the rib cage. Bone marrow profile before TPA treatment: myeloblast+promyelocyte: 36%. TPA treatment: 1 mg/week for 5 weeks. Blood profile after treatment: Hb: 104 g/L; WBC: 4.9×10^9 /L, platelet: 80×10^9 /L. Spleen: 0.5 cm below the rib cage. Bone marrow profile after TPA treatment: myeloblast+promyelocyte: 3%.
Subject No. (3), patient No. 18102. Diagnosis: chronic myelocytic leukemia became acute myelocytic leukemia before treatment. Blood profile before TPA treatment: Hb: 70 g/L; WBC: 27.5×10^9 /L, platelet: 21×10^9 /L. Bone marrow profile before TPA treatment: myeloblast+promyelocyte: 90%. TPA treatment: 1 mg/week for 7 weeks. Blood profile after treatment: Hb: 96 g/L; WBC: 22×10^9 /L, platelet: 70×10^9 /L. Bone marrow profile after TPA treatment: myeloblast+promyelocyte: 2%.
Subject No. (4), patient No. 21315. Diagnosis: chronic myelocytic leukemia became acute myelocytic leukemia before treatment. Blood profile before TPA treatment: Hb: 87 g/L; WBC: 19×10^9 /L, platelet: 150×10^9 /L. Bone marrow profile before TPA treatment: myeloblast+promyelocyte: 67.5%. TPA treatment: 1 mg/week for 7 weeks. Blood profile after treatment: Hb: 45 g/L; WBC: 53.5×10^9 /L, platelet: 210×10^9 /L. Bone marrow profile after TPA treatment: myeloblast+promyelocyte: 4.5%.
Subject No. (5), patient No. 23965. Diagnosis: chronic myelocytic leukemia progressed to acute myelocytic leukemia. Blood profile before TPA treatment: Hb: 84 g/L; WBC: 36.6×10^9 /L, platelet: 290×10^9 /L. Bone marrow profile before TPA treatment: myeloblast+promyelocyte: 27.5%. TPA treatment: 1 mg/week for 2 weeks. Blood profile after treatment: Hb: 84 g/L; WBC: 27.3×10^9 /L, platelet: 170×10^9 /L. Bone marrow profile after TPA treatment: myeloblast+promyelocyte: 1.5%.
All the above patients had received various regimens of chemotherapy prior to the TPA treatment, including hydroxyurea, busulfan, and Ara-C, etc. but none was effective at the start of TPA treatment. Before the administration of TPA, patients received injection of 6×10^5 units of vitamin D3 (VD3)/person for 2 days; after the TPA administration, patients received i.v. infusion of 40 mg of Ara-C/d×3. […] These patients have been in clinical remission for over 6 months.
Subject No. (6), person. Diagnosed as AML-M3. Symptoms began in January, 1995. Blood profile: Hb:60 g/L, WBC: 0.4×10^9 /L, platelet: 40×10^9 /L. Bone marrow profile: myeloblast+promyelocyte: 48%. The TPA treatment period was 1 mg/week for three weeks, and 6×10^5 units VD3 /d×3 were injected prior to the treatment. […] The patient has been in remission after treatment for at least 6 months.
Subject No. (7), person. Diagnosis: MDS-REAB accompanied by an increased number of monocytes. […] The patient started to receive a combination treatment of 1,25-(OH)2 VD3 +TPA+low dose Ara-C. TPA dosage: 0.25-0.5 mg (1 mg per week) for eleven weeks. […]

[2] = Chemical stability of TPA solutions on storage; type: physicochemical; conditions: dark
Procedure: 0.10, 0.125, 0.25 or 0.5 mg of TPA was dissolved in 1.3 ml 95-100% U.S.P. ethanol and 0.7 ml saline. Under sterile conditions, TPA was first dissolved in ethanol, then saline was added, mixed vigorously, bacteriologically filtered, and stored in sealed sterile amber vials containing either 0.10 mg/2 ml, 0.125 ml/2 ml or 0.25 mg/2 ml, 0.5 mg/2 ml.
0.10, 0.125, 0.25 or 0.5 mg of TPA was dissolved in 0.2 ml of ethanol, 1.2 ml of isopropanol and 0.6 ml saline. Under sterile conditions, TPA was first dissolved in the ethanol and isopropanol, then saline was added, and the mixture was vigorously mixed, bacteriologically filtered and stored in sealed sterile amber vials containing either 0.10 mg/2 ml, 0.125 ml/2 ml or 0.25 mg/2 ml or 0.5 mg/2 ml.

mouse skin = conditions: cited from earlier work
[3] = subject 6, AML-M3, TPA 1 mg/week three weeks, VD3 prior
[4] = subject 7, MDS-REAB, 1,25-(OH)2 VD3+TPA+low dose Ara-C, eleven weeks
[5] = subject 7, combination with 1,25-(OH)2 VD3 and Ara-C
[6] = subject 7, combination with 1,25-(OH)2 VD3 and Ara-C, blood
[7] = subject 8, AML-M3, retinoic acid failed
[8] = subject 9, secondary aplastic anemia, TPA 0.25 mg×2
[9] = subject 10, CML, TPA 0.25 mg once
[10] = subject 10, CML, TPA 0.25 mg once, second day
[11] = subjects 1-5, VD3 before, Ara-C after TPA

SMILES: CCCCCCCCCCCCCC(=O)O[C@@H]1[C@@H](C)[C@@]2(O)[C@@H](C=C(CO)C[C@]3(O)C(=O)C(C)=C[C@@H]23)[C@@H]2C(C)(C)[C@]12OC(C)=O [TPA, Phorbol 12-Myristate-13-Acetate]
- HL-60 cell differentiation (HL-60 cells; TPA alone, low dose 20 ng/ml): weak cell differentiation-inducing agent
- HL-60 cell differentiation (HL-60 cells; combination of TPA and Ara-C): induced the HL-60 cells to differentiate synergistically
- Bone marrow myeloblast+promyelocyte after TPA treatment ([1]; CML progressed to AML, TPA 1 mg/week for 2-7 weeks, VD3 before, Ara-C after): 2.5% and 3% and 2% and 4.5% and 1.5%
- duration of clinical remission ([1]; many of the patients, from first treatment): over six months
- clinical remission ([1]; refractory leukemia patients): clinical remission was achieved in a relatively short time
- bone marrow suppression, infection or bleeding ([1]; refractory leukemia patients): no bone marrow suppression, infection or bleeding
- Spleen below the rib cage after treatment ([1]; subject 2, TPA 1 mg/week for 5 weeks): 0.5 cm
- duration of remission ([1]; subject 6, AML-M3): at least 6 months
- remission ([1]; subject 6, AML-M3): met the standard for AML-M3 remission
- Bone marrow myeloblast+promyelocyte after first treatment period [1, 3]: 3%
- Hb after first treatment period [1, 3]: 118 g/L
- WBC after first treatment period [1, 3]: 4.1e+09 L⁻¹
- platelet after first treatment period [1, 3]: 8e+10 L⁻¹
- Hb after treatment [1, 4]: 42 g/L
- WBC after treatment [1, 4]: 1.02e+10 L⁻¹
- platelet after treatment [1, 4]: 3.4e+10 L⁻¹
- Spleen below the rib cage after treatment [1, 4]: 0.5 cm
- Bone marrow myeloblast after treatment [1, 5]: 4%
- Bone marrow promyelocyte after treatment [1, 5]: 6%
- Lymphocyte after treatment [1, 6]: 19%
- Monocyte after treatment [1, 6]: 1%
- Neutrophil after treatment [1, 6]: 80%
- Promyelocytes in blood after treatment [1, 6]: not detected
- WBC after TPA treatment [1, 7]: 2.2e+09 L⁻¹
- platelet after TPA treatment [1, 7]: 2.23e+11 L⁻¹
- Hb after TPA treatment [1, 8]: 32 g/L
- platelet after TPA treatment [1, 8]: 5.7e+10 L⁻¹
- Hb after treatment [1, 9]: 96 g/L
- WBC after treatment [1, 9]: 2e+09 L⁻¹
- platelet after treatment [1, 9]: 1.12e+11 L⁻¹
- myeloblast+promyelocyte [1, 10]: 4%
- myelocyte [1, 10]: 5%
- clinical remission in bone marrow parameters [1, 11]: all achieved clinical remission in bone marrow parameters in a short time
- duration of clinical remission [1, 11]: over 6 months
- bone marrow suppression, infection or bleeding ([1]; subjects 1-5): no bone marrow suppression, nor infection or bleeding
- chemical change on storage ([2]; cold temperature, up to one year): no chemical change
- chemical change on storage ([2]; room temperature, up to two months): no chemical change
- mouse skin cancer promotion (mouse skin; Chemsyn product brochure): extremely potent mouse skin cancer promoter
- tumor promotion (mouse skin; Merck Index, 11th Edition): co-carcinogen or tumor promoter
